From patent publication US20250109134A1 (Ascentage Pharma (Suzhou) Co., Ltd., priority 2022, published 2025)

Assays:
Format in all cases: physicochemical
[1] = Stability study, content and related substances (TRS, total impurity content) by HPLC
Method: In the present invention, the HPLC (high performance liquid chromatography) test parameters are set as follows:
Then, the sample flasks were opened to air (sealed with aluminum foil punctured with small holes) and placed in constant temperature and humidity cabinets at high temperature (60° C.), at room temperature and high humidity ([…]), at RT/75% RH, and at 40° C./75% RH for 30 days, respectively, […]

[2] = Stability study, solid form by XRPD after open storage at high temperature / high humidity; conditions: summary of forms
Method: In the present invention, the XRPD test parameters are set as follows:
Then, the sample flasks were opened to air (sealed with aluminum foil punctured with small holes) and placed in constant temperature and humidity cabinets at high temperature (60° C.), at room temperature and high humidity (RT/92.5% RH), at RT/75% RH, and at 40° C./75% RH for 30 days, respectively, and samples were taken at days 5, 10 and 30 for XRPD and HPLC detection.

[3] = XRPD characterization (crystallinity), summary evaluation; conditions: summary of forms
Source text: In the present invention, the XRPD test parameters are set as follows: […]

[4] = Dynamic vapor sorption (DVS) hygroscopicity test; conditions: summary of forms
Source text: In the present invention, the DVS test parameters are set as follows: […]

| Compound | TRS(%) ([1]; 40° C./75RH %-5 d, open storage) | TRS(%) ([1]; 40° C./75RH %- 10 d, open storage) | TRS(%) ([1]; 40° C./75RH %- 30 d, open storage) | TRS(%) ([1]; 60° C.-5 d, open storage) | TRS(%) ([1]; 60° C.-10 d, open storage) | TRS(%) ([1]; 60° C.-30 d, open storage) | TRS(%) ([1]; Initial, TRS = total impurity content, HPLC) | TRS(%) ([1]; RT/90RH %-5 d, open storage) | TRS(%) ([1]; RT/90RH %-10 d, open storage) | TRS(%) ([1]; RT/90RH %-30 d, open storage) | Evaluation results: stability [2] | Evaluation results: crystallinity [3] | Evaluation results: hygroscopicity [4] |
| --- | --- | --- | --- | --- | --- | --- | --- | --- | --- | --- | --- | --- | --- |
| CC(C)N1Cc2cc(C(F)(F)F)ncc2-c2cnc(NCc3c(F)ccc4c3CCO4)n3cnc(c23)C1=O [Crystalline form B] | 0.54 | 0.46 | 0.56 | 0.52 | 0.53 | 0.62 | 0.89 | 0.55 | 0.56 | 0.58 | Good stability | high crystallinity | – |
| CC(C)N1Cc2cc(C(F)(F)F)ncc2-c2cnc(NCc3c(F)ccc4c3CCO4)n3cnc(c23)C1=O [Crystalline form G] | – | – | – | – | – | – | – | – | – | – | – | High crystallinity | slight hygroscopicity |
